From patent US8361968B2 (Takeda Pharmaceutical Company Limited, priority 2002, dated 2013)
Numbered stars: 1 amine (or outer) side, 2 acyl side, 3 side chain; on linkers, the order of the positions; unused ones are H or OH. Square brackets hold non-standard residues; d marks the D form. Ends that are not written are not given here. Peptide text beside a SMILES is read from it. * marks the point of attachment. X12 = CNC(=N)NCCC[C@H](NC(=O)[C@H](CC(C)C)NCCN*)C(=O)N[C@@H](Cc1ccccc1)C(N)=O; X4 = CC(C)C[C@H](NCCN*)C(=O)N[C@@H](CCCNC(=N)N)C(=O)N[C@@H](Cc1ccccc1)C(N)=O; X5 = NC(=O)C[C@@H](CN([C@@H](Cc1c[nH]c2ccccc12)C(=O)[*:2])[*:1])N[*:3]; X11 = O=C(CNC(=S)[C@H](Cc1ccccc1)N[*:1])[*:2]; 2Nal = N[C@@H](Cc1ccc2ccccc2c1)C(=O)O; Arg(Me) = CNC(=N)NCCC[C@H](N)C(=O)O; d3Pal = N[C@H](Cc1cccnc1)C(=O)O; Cha = N[C@@H](CC1CCCCC1)C(=O)O; Boc = CC(C)(C)OC(=O)*; azaGly = NNC(=O)O

target: hOT7T175 (Homo sapiens, UniProt Q969F8, L364H); assay: Intracellular Ca ion level-increasing activity using FLIPR in hOT7T175/CHO; format: cell-based; set-up: expressed in transfected cells; host or cells: CHO/dhfr- cells, obtained from ATCC; conditions: relative, Metastin (1-54) = 1
Protocol: Assay for Intracellular Ca Ion Level-Increasing Activity Using Flipr
In accordance with the method described in JPA 2000-312590, the intracellular Ca ion level-increasing activity was measured using FLIPR.
The stable expression cell line hOT7T175 was acquired by transduction of expression plasmid pAK-rOT175 for animal cells into CHO/dhff cells, using CellPhect Transfection Kit (Amersham Pharmacia Biotech, Inc.). First, 240 μL of Buffer A (attached to CellPhect Transfection Kit) was added to 9.6 μg of plasmid DNA dissolved in 240 μl of distilled water, followed by stirring. After settling the mixture for 10 minutes, 480 μL of Buffer B (attached to CellPhect Transfection Kit) was added to the mixture, which was vigorously stirred to form DNA-containing liposomes. Then, 4×10^5 CHO/dhff cells (obtained from ATCC) were inoculated on a 60 mm Petri dish. […] After culturing the cells at 37° C. for 6 hours in 5% carbon dioxide gas, the cells were washed twice with serum-free Ham's F-12 medium and 3 ml of 15% glycerol was added to the cells in the Petri dish to treat for 2 minutes. The cells were again washed twice with serum-free Ham's F-12 medium followed by incubation in Ham's F-12 medium supplemented with 10% fetal bovine serum at 37° C. for 15 hours in 5% carbon dioxide gas. The cells were dispersed by trypsin treatment and recovered from the Petri dish. The recovered cells were inoculated on a 6-well plate in 1.25×10^4 cells/well and incubation was initiated at 37° C. in Dulbecco's modified Eagle medium (DMEM) medium (Nissui Seiyaku Co., Ltd.) containing 10% dialyzed fetal bovine serum (JRH BIOSCIENCES, Inc.) under 5% carbon dioxide gas. […] The medium was exchanged on Days 1 and 2 to remove the cells died.
The intracellular Ca ion level-increasing activity of the synthetic peptide in hOT7T175/CHO was determined using FLIPR (Molecular Devices, Inc.).
hOT7T175/CHO was subcultured in DMEM supplemented with 10% dialyzed fetal bovine serum (hereinafter abbreviated as dFBS) and provided for the experiment (hereinafter abbreviated as 10% dFBS/DMEM). The hOT7T175/CHO was suspended in 10% dFBS-DMEM in 15×10^4 cells/ml. The suspension was inoculated on a 96-well plate for FLIPR (Black Plate Clear Bottom, Coster, Inc.) at 200 μL each (3.0×10^4 cells/200 μL/well), followed by incubation at 37° C. overnight in a 5% CO2 incubator (hereinafter simply referred to as the cell plate). Then, 21 ml of HANKS/HBSS (9.8 g of HANKS, 0.35 g of sodium hydrogencarbonate, 20 ml of 1M HEPES; after adjusting the pH to 7.4 with 1N sodium hydroxide, the mixture was sterilized by filtration), 210 μl of 250 mM Probenecid and […] of fetal bovine serum (FBS) were mixed (HANKS/HBSS-Probenecid-FBS).
Furthermore, 2 vials of Fluo3-AM (50 μug/vial) were dissolved in 21 μL of dimethylsulfoxide and 21 μL of 20% Pluronic acid. The resulting solution was added to and mixed with 10 ml of HANKS/HBSS-Probenecid-FBS described above. After the culture medium was removed, the mixture was dispensed onto the cell plate in 100 μL each/well, followed by incubation at 37° C. for an hour in a 5% CO2 incubator (pigment loading). The peptide was dissolved in dimethylsulfoxide in 1×10^−3 M. The peptide solution was diluted with HANKS/HBSS containing 2.5 mM Probenecid, 0.2% BSA and 0.1% CHAPS.

Sequence of hOT7T175 (Q969F8 whole entry L364H): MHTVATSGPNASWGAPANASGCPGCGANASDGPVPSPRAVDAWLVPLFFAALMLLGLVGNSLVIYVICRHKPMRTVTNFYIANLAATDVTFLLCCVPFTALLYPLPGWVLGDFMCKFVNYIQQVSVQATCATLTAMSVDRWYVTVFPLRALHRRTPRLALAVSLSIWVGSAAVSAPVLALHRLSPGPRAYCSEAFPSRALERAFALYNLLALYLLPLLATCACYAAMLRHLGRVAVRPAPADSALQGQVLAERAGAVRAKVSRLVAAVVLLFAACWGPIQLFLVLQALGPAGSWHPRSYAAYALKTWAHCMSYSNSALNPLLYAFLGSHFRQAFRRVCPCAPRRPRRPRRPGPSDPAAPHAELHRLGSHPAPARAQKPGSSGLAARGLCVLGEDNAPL

Compound	Specific Activity (intracellular Ca ion level-increasing activity)
CNC(=N)NCCC[C@H](NC(=O)[C@H](CC(C)C)NC(=O)NNC(=O)[C@H](Cc1ccccc1)NC(=O)[C@H](CO)NC(=O)[C@H](CC(N)=O)NC(=O)[C@H](Cc1ccc2ccccc2c1)NC(=O)[C@H](N)Cc1ccc(O)cc1)C(=O)N[C@@H](Cc1ccccc1)C(N)=O [Compound No. 255, D-Tyr-Nal(2)-Asn-Ser-Phe-AzaGly-Leu-Arg(Me)-Phe-NH2] (H-[dY][2Nal]NSF[azaGly]L[Arg(Me)]F-NH2)	1
CNC(=N)NCCC[C@H](NC(=O)[C@H](CC(C)C)NC(=O)CNC(=O)[C@H](Cc1ccccc1)NC(=O)[C@H](CO)NC(=O)[C@H](CC(N)=O)NC(=O)[C@H](Cc1c[nH]c2ccccc12)NC(=O)[C@@H](NC(=O)[C@H](N)Cc1ccc(O)cc1)[C@@H](C)O)C(=O)N[C@@H](Cc1ccccc1)C(N)=O [Compound No. 215] (H-[dY]TWNSFGL[Arg(Me)]F-NH2; N-terminus assumed)	10
D-Tyr-Asn-Trp-Ser-Ser-Phe-Gly-Leu-Arg(Me)-Phe-NH2 ([dY]NWSSFGL[Arg(Me)]F-NH2; N-terminus assumed; SMILES CNC(=N)NCCC[C@H](NC(=O)[C@H](CC(C)C)NC(=O)CNC(=O)[C@H](Cc1ccccc1)NC(=O)[C@H](CO)NC(=O)[C@H](CO)NC(=O)[C@H](Cc1c[nH]c2ccccc12)NC(=O)[C@H](CC(N)=O)NC(=O)[C@H](N)Cc1ccc(O)cc1)C(=O)N[C@@H](Cc1ccccc1)C(N)=O) [Compound No. 207]	½
Boc-Tyr-Asn-Trp-Phe-Gly-Leu-Arg-Phe-NH2 (Boc-YNWFGLRF-NH2; SMILES CC(C)C[C@H](NC(=O)CNC(=O)[C@H](Cc1ccccc1)NC(=O)[C@H](Cc1c[nH]c2ccccc12)NC(=O)[C@H](CC(N)=O)NC(=O)[C@H](Cc1ccc(O)cc1)NC(=O)OC(C)(C)C)C(=O)N[C@@H](CCCNC(=N)N)C(=O)N[C@@H](Cc1ccccc1)C(N)=O) [Compound No. 87]	1
CNC(=N)NCCC[C@H](NC(=O)[C@H](CC(C)C)NC(=O)CNC(=S)[C@H](Cc1ccccc1)NC(=O)[C@H](CO)NC(=O)[C@H](CC(N)=O)NC(=O)[C@H](Cc1c[nH]c2ccccc12)NC(=O)[C@H](CC(N)=O)NC(=O)[C@H](N)Cc1ccc(O)cc1)C(=O)N[C@@H](Cc1ccccc1)C(N)=O [Compound No. 296, D-Tyr-Asn-Trp-Asn-Ser-PheΨ(CSNH)Gly-Leu-Arg(Me)-Phe-NH2] (H-[dY]NWNS[X11]L[Arg(Me)]F-NH2)	3
CNC(=N)NCCC[C@H](NC(=O)[C@H](CC(C)C)NC(=O)CNC(=O)[C@H](Cc1ccccc1)NC(=O)[C@H](CO)NC(=O)[C@@H](NC(=O)[C@H](Cc1c[nH]c2ccccc12)NC(=O)[C@H](CC(N)=O)NC(=O)[C@H](N)Cc1ccc(O)cc1)[C@@H](C)O)C(=O)N[C@@H](Cc1ccccc1)C(N)=O [Compound No. 208] (H-[dY]NWTSFGL[Arg(Me)]F-NH2)	1
CC(=O)NC(=N)NCCC[C@H](NC(=O)[C@H](CC(C)C)NC(=O)CNC(=O)[C@H](Cc1ccccc1)NC(=O)[C@H](CO)NC(=O)[C@H](CC(N)=O)NC(=O)[C@H](Cc1c[nH]c2ccccc12)NC(=O)[C@H](CC(N)=O)NC(=O)[C@H](N)Cc1ccc(O)cc1)C(=O)N[C@@H](Cc1ccccc1)C(N)=O [Compound No. 194]	1
CC(C)C[C@H](NC(=O)CNC(=O)[C@H](Cc1ccccc1)NC(=O)[C@H](CO)NC(=O)[C@H](CC(N)=O)NC(=O)[C@H](Cc1c[nH]c2ccccc12)NC(=O)[C@H](CC(N)=O)NC(=O)[C@@H](N)Cc1ccc(O)cc1)C(=O)N[C@@H](CCCNC(=N)N)C(=O)N[C@@H](Cc1ccccc1F)C(N)=O [Compound No. 19]	2

Other lines, results leading:

Specific Activity (intracellular Ca ion level-increasing activity)	Compound
1	CNC(=N)NCCC[C@H](NC(=O)[C@H](CC(C)C)NC(=O)NNC(=O)[C@H](Cc1ccccc1)NC(=O)[C@H](CO)NC(=O)[C@H](CC(N)=O)NC(=O)[C@H](Cc1c[nH]c2ccccc12)NC(=O)[C@@H](Cc1c[nH]cn1)NC(=O)[C@H](N)Cc1ccc(O)cc1)C(=O)N[C@@H](Cc1ccccc1)C(N)=O [Compound No. 288, D-Tyr-D-His-Trp-Asn-Ser-Phe-AzaGly-Leu-Arg(Me)-Phe-NH2] (H-[dY][dH]WNSF[azaGly]L[Arg(Me)]F-NH2)
10	CNC(=N)NCCC[C@H](NC(=O)[C@H](CC(C)C)NC(=O)NNC(=O)[C@H](Cc1ccccc1)NC(=O)[C@H](CO)NC(=O)[C@H](CC(N)=O)NC(=O)[C@H](CC1CCCCC1)NC(=O)[C@H](CC(N)=O)NC(=O)[C@H](N)Cc1ccc(O)cc1)C(=O)N[C@@H](Cc1ccccc1)C(N)=O [Compound No. 190, D-Tyr-Asn-Cha-Asn-Ser-Phe-AzaGly-Leu-Arg(Me)-Phe-NH2] (H-[dY]N[Cha]NSF[azaGly]L[Arg(Me)]F-NH2)
1	CNC(=N)NCCC[C@H](NC(=O)[C@H](CC(C)C)NCCNC(=O)[C@H](Cc1ccccc1)NC(=O)[C@H](CO)NC(=O)[C@H](CC(N)=O)NC(=O)[C@H](Cc1c[nH]c2ccccc12)NC(=O)[C@H](CC(N)=O)NC(=O)[C@H](N)Cc1ccc(O)cc1)C(=O)N[C@@H](Cc1ccccc1)C(N)=O [Compound No. 307, D-Tyr-Asn-Trp-Asn-Ser-Phe-GlyΨ(CH2NH)Leu-Arg(Me)-Phe-NH2] (H-[dY]NWNSF-X12)
10	CC(=O)N[C@@H](Cc1ccc(O)cc1)C(=O)N[C@@H](CC(N)=O)C(=O)N[C@@H](Cc1c[nH]c2ccccc12)C(=O)N[C@@H](CC(N)=O)C(=O)N[C@@H](CO)C(=O)N[C@@H](Cc1ccccc1)C(=O)NCC(=O)N[C@@H](CC(C)C)C(=O)N[C@@H](CCCNC(=N)N)C(=O)N[C@@H](Cc1ccccc1)C(N)=O [Compound No. 30]
3	CC(C)C[C@H](NC(=O)CNC(=O)[C@H](Cc1ccccc1)NC(=O)[C@H](CO)NC(=O)[C@H](CC(N)=O)NC(=O)[C@H](Cc1c[nH]c2ccccc12)NC(=O)[C@H](CC(N)=O)NC(=O)[C@@H](N)Cc1ccc(O)cc1)C(=O)N[C@@H](CCNC(=N)N)C(=O)N[C@@H](Cc1ccccc1)C(N)=O [Compound No. 310]
7	3-Pyridylpropionyl-Asn-Ser-Phe-AzaGly-Leu-Arg(Me)-Trp-NH2 [Compound No. 386]
1	CC(C)C[C@H](NCCNC(=O)[C@H](Cc1ccccc1)NC(=O)[C@H](CO)NC(=O)[C@H](CC(N)=O)NC(=O)[C@H](Cc1c[nH]c2ccccc12)NC(=O)[C@H](CC(N)=O)NC(=O)[C@@H](N)Cc1ccc(O)cc1)C(=O)N[C@@H](CCCNC(=N)N)C(=O)N[C@@H](Cc1ccccc1)C(N)=O [Compound No. 261, Tyr-Asn-Trp-Asn-Ser-Phe-GlyΨ(CH2NH)Leu-Arg-Phe-NH2] (H-YNWNSF-X4; N-terminus assumed)
1	CC(C)C[C@H](NC(=O)CNC(=O)[C@H](Cc1ccccc1)NC(=O)[C@H](CO)NC(=O)[C@H](CC(N)=O)NC(=O)[C@H](Cc1c[nH]c2ccccc12)NC[C@H](CC(N)=O)NC(=O)[C@@H](N)Cc1ccc(O)cc1)C(=O)N[C@@H](CCCNC(=N)N)C(=O)N[C@@H](Cc1ccccc1)C(N)=O [Compound No. 295] (H-[X5](Tyr)NSFGLRF-NH2)
1	CNC(=N)NCCC[C@H](NC(=O)[C@H](CC(C)C)NC(=O)NNC(=O)[C@H](Cc1ccccc1)NC(=O)[C@H](CO)NC(=O)[C@H](CC(N)=O)NC(=O)[C@H](Cc1ccccc1)NC(=O)[C@H](N)Cc1cccnc1)C(=O)N[C@@H](Cc1ccccc1)C(N)=O [Compound No. 256, D-Pya(3)-Phe-Asn-Ser-Phe-AzaGly-Leu-Arg(Me)-Phe-NH2] (H-[d3Pal]FNSF[azaGly]L[Arg(Me)]F-NH2)
